Reference: US8329739B2, “Phenylimidazole compounds” (Otsuka Pharmaceutical Factory, Inc., priority 2009, dated 2012)

How the values were obtained:
[1] = biological target: T1, LPL (lipoprotein lipase) (Mus musculus, UniProt P11152); assay: Confirmation test of LPL activation effect in mouse skeletal muscle cells (C2C12 cells); format: cell-based; settings: 8 hours exposure, vs control group
T1 construct: endogenous in cells; host or cells: C2C12 cells, differentiated
T1 sequence (P11152 28-474): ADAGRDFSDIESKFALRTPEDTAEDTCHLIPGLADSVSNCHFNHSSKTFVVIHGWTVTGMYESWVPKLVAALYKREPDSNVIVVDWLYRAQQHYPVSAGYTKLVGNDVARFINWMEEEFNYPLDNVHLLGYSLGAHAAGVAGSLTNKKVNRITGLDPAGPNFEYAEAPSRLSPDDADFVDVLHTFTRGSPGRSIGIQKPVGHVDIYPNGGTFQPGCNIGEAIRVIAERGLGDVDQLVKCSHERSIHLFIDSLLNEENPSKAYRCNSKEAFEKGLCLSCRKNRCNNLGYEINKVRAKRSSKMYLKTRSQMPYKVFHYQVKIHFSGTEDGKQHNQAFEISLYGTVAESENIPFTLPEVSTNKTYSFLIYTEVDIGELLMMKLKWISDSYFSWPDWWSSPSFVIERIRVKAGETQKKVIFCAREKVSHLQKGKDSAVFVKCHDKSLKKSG
Description: Human skeletal muscle cells (human skeletal muscle myoblasts) or mouse skeletal muscle cells (C2C12 cells) that were seeded onto plates, cultured, and differentiated were exposed to a 0.3% dimethyl sulfoxide-containing culture medium in which the compound of the present invention was dissolved (concentration: 10 μM or 30 μM). The medium was removed 8 hours after exposure, 10 mM of Tris-HCl buffer (150 mM NaCl, 10 μ/mL; containing heparin sodium) was added to the cells, and the cells were incubated at 37° C. in the presence of 5% CO2 for 10 minutes. LPL activity in the supernatant was measured using an LPL activity assay kit (made by Roar Biomedical Inc.). LPL activity was evaluated based on the increase in fluorescence intensity 10 to 70 minutes after mixing the supernatant with the LPL substrate. The mean value of the increase in fluorescence intensity of the cells exposed to a 0.3% dimethyl sulfoxide-containing culture medium […] was used as mean value of the control group. Note that the compounds of Examples 18, 19, 32, 45 and 57 were tested using human skeletal muscle cells, and other compounds were tested using mouse skeletal muscle cells. The rate of increase (%) was calculated from the measured values of LPL activity in the control group and the experimental group, according to the following formula. Rate of increase in LPL activity (%)=[(mean value of the experimental group)−(mean value of the control group)]/(mean value of the control group)×100

Row | Rate of increase in LPL activity ([1]; amount of addition 10 μM) | Rate of increase in LPL activity ([1]; amount of addition 30 μM) | melting point | SMILES
1 | 29% | 100% | 158 to 161 °C | COc1cc(OCc2ccc(Cl)cc2)ccc1-c1c[nH]c(-c2ccccc2C(F)(F)F)n1 [Example 83]
2 | 10% | 99% | 195 to 198 °C | COc1cc(OCc2ccc(C#N)cc2)ccc1-c1c[nH]c(-c2ccc(C)cc2)n1 [Example 85]
3 | 40% | 375% | > 250 °C | COc1ccc(-c2nc(-c3ccc(OCc4ccc(Br)cc4F)cc3OC)c[nH]2)cc1.Cl [Example 86]
4 | 23% | 144% | 183 to 186 °C | COc1ccc(-c2nc(-c3ccc(OCc4ccc(C#N)cc4)cc3OC)c[nH]2)cc1.Cl [Example 87]
5 | 12% | 98% | 231 to 236 °C | COc1cc(OCc2ccc(Br)cc2F)ccc1-c1c[nH]c(-c2cccc(Cl)c2)n1.Cl [Example 88]
6 | 18% | 130% | 177 to 180 °C | COc1cc(OCc2ccc(Br)cc2F)ccc1-c1c[nH]c(-c2ccc(C(C)(C)C)cc2)n1 [Example 90]
7 | 28% | 95% | 260 to 265 °C | COc1cc(OCc2ccc(Br)cc2F)ccc1-c1c[nH]c(-c2cc(Cl)cc(Cl)c2)n1 [Example 91]
8 | 42% | 123% | 158 to 159 °C | COC(=O)c1ccc(-c2nc(-c3ccc(OCc4ccc(Br)cc4F)cc3OC)c[nH]2)cc1 [Example 92]
9 | 36% | 174% | 255 to 256 °C | COc1ccc(-c2nc(-c3ccc(OCc4ccc(Br)cc4F)cc3OC)c[nH]2)cc1OC.Cl [Example 93]
10 | 9% | 15% | > 250 °C | COc1cc(OCc2ccc(Br)cc2F)ccc1-c1c[nH]c(-c2ccc(C(=O)O)cc2)n1.Cl [Example 94]
11 | 27% | 96% | 173 to 176 °C | COc1cc(OCc2ccc(C#N)cc2)ccc1-c1c[nH]c(-c2ccc(F)c(F)c2)n1 [Example 96]
12 | 27% | 63% | 154 to 157 °C | COc1cc(OCc2ccc(C#N)cc2)ccc1-c1c[nH]c(-c2cccc(Cl)c2)n1 [Example 97]
13 | 14% | 90% | 255 to 258 °C | COc1cccc(-c2nc(-c3ccc(OCc4ccc(Br)cc4F)cc3OC)c[nH]2)c1.Cl [Example 99]
14 | 12% | 43% | 139 to 142 °C | COc1cccc(-c2nc(-c3ccc(OCc4ccc(C#N)cc4)cc3OC)c[nH]2)c1 [Example 100]
15 | 44% | 88% | 260 to 262 °C | COc1cc(OCc2ccc(Br)cc2F)ccc1-c1c[nH]c(-c2ccc(Cl)c(Cl)c2)n1 [Example 102]
16 | 30% | 92% | 237 to 243 °C | COc1cc(OCc2ccc(Br)cc2F)ccc1-c1c[nH]c(-c2ccc(F)c(Cl)c2)n1 [Example 103]
17 | 74% | 365% | 170 to 173 °C | COc1ccc(-c2nc(-c3ccc(OCc4ccc(Cl)cc4)cc3OC)c[nH]2)cc1 [Example 104]
18 | 12% | 77% | 219 to 222 °C | COc1cc(OCc2ccccc2)ccc1-c1c[nH]c(-c2ccc(C)cc2)n1 [Example 109]

Row | Rate of increase in LPL activity ([1]; amount of addition 10 μM) | Rate of increase in LPL activity ([1]; amount of addition 30 μM) | melting point | SMILES
19 | 37% | 106% | 145 to 148 °C | COc1cc(OCc2ccc(Cl)cc2)ccc1-c1c[nH]c(-c2ccc(Cl)c(Cl)c2)n1 [Example 110]
20 | 61% | 81% | 137 to 140 °C | COc1cc(OCc2ccc(C#N)cc2)ccc1-c1c[nH]c(-c2ccc(Cl)c(Cl)c2)n1 [Example 111]
21 | 58% | 199% | 252 to 257 °C | COc1cc(OCc2ccc(Cl)cc2)ccc1-c1c[nH]c(-c2ccc(F)c(F)c2)n1 [Example 112]
22 | 4% | 123% | 223 to 226 °C | COc1cc(OCc2ccc(Cl)cc2)ccc1-c1c[nH]c(-c2cccc(Cl)c2)n1.Cl [Example 113]
23 | 62% | 88% | 154 to 157 °C | COc1cc(OCc2ccc(Cl)cc2)ccc1-c1c[nH]c(-c2ccc(C(C)(C)C)cc2)n1 [Example 115]
24 | 36% | 84% | 177 to 184 °C | COc1cc(OCc2ccc(C#N)cc2)ccc1-c1c[nH]c(-c2ccc(C(C)(C)C)cc2)n1 [Example 116]
25 | 80% | 102% | 233 to 241 °C | COc1cc(OCc2ccc(Cl)cc2)ccc1-c1c[nH]c(-c2cc(Cl)cc(Cl)c2)n1.Cl [Example 118]
26 | 67% | 174% | 231 to 236 °C | COc1cc(OCc2ccc(Cl)cc2)ccc1-c1c[nH]c(-c2cccc(C(F)(F)F)c2)n1.Cl [Example 119]
27 | 113% | 270% | 247 to 249 °C | COc1cc(OCc2ccccc2)ccc1-c1c[nH]c(-c2cc(F)cc(F)c2)n1.Cl [Example 121]
28 | 11% | 42% | 160 to 163 °C | COc1cc(OCc2ccccc2)ccc1-c1c[nH]c(-c2ccc(Cl)cc2)n1 [Example 123]
29 | 93% | 113% | 242 to 245 °C | COc1cc(OCc2ccccc2)ccc1-c1c[nH]c(-c2ccc(Cl)c(Cl)c2)n1.Cl [Example 124]
30 | 99% | 297% | 159 to 162 °C | COc1cc(OCc2ccccc2)ccc1-c1c[nH]c(-c2cccc(C(F)(F)F)c2)n1 [Example 126]
31 | 49% | 208% | 154 to 165 °C | COc1ccc(-c2nc(-c3ccc(OCc4ccccc4)cc3OC)c[nH]2)cc1.Cl [Example 128]
32 | 9% | 170% | 236 to 238 °C | COc1cccc(-c2nc(-c3ccc(OCc4ccccc4)cc3OC)c[nH]2)c1.Cl [Example 130]
33 | 35% | 213% | 165 to 166 °C | COc1cc(OCc2ccc(Cl)cc2F)ccc1-c1c[nH]c(-c2ccc(C(F)(F)F)cc2)n1 [Example 132]
34 | 63% | 236% | 259 to 260 °C | COc1cc(OCc2ccc(Cl)cc2F)ccc1-c1c[nH]c(-c2ccc(F)cc2)n1.Cl [Example 133]
35 | 32% | 308% | 245 to 249 °C | COc1cccc(-c2nc(-c3ccc(OCc4ccc(Cl)cc4F)cc3OC)c[nH]2)c1.Cl [Example 134]
36 | 71% | 128% | 249 to 251 °C | COc1cc(OCc2ccc(Cl)cc2F)ccc1-c1c[nH]c(-c2ccccc2)n1.Cl [Example 139]
